Experimental data reported in paper doi:10.1101/2020.06.11.145995v1 (biorxiv, 2020).

What was measured:
Experiment in all cases: biochemical
KIT-autoinhibited = KIT-autoinhibited (Homo sapiens, UniProt P10721); settings: read-out: CPT-1-70-1 (1uM) % control
CSF1R-autoinhibited = CSF1R-autoinhibited (Homo sapiens, UniProt P07333); settings: read-out: CPT-1-70-1 (1uM) % control
PIK3CB = PIK3CB (Homo sapiens, UniProt P42338); settings: read-out: CPT-1-70-1 (1μM) % control
PKAC-beta = PKAC-beta (Homo sapiens, UniProt P22694); settings: read-out: CPT-1-70-1 (1μM) % control
PKMYT1 = PKMYT1 (Homo sapiens, UniProt Q99640); settings: read-out: CPT-1-70-1 (1μM) % control
Sequence of PKMYT1 (Q99640 whole entry): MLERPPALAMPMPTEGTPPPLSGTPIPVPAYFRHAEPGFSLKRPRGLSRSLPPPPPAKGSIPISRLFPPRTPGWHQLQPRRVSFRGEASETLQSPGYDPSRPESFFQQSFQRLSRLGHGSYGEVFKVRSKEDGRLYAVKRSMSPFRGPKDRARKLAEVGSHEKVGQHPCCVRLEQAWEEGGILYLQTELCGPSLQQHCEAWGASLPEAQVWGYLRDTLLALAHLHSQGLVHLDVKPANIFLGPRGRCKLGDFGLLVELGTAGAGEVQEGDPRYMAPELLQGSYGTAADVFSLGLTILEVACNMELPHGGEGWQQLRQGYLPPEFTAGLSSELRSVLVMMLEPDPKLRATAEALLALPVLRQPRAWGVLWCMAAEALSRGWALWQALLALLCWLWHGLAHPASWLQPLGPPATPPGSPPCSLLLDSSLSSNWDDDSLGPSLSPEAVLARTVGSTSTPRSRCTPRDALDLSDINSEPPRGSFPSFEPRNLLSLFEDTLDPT

Sequence of PIK3CB (P42338 whole entry): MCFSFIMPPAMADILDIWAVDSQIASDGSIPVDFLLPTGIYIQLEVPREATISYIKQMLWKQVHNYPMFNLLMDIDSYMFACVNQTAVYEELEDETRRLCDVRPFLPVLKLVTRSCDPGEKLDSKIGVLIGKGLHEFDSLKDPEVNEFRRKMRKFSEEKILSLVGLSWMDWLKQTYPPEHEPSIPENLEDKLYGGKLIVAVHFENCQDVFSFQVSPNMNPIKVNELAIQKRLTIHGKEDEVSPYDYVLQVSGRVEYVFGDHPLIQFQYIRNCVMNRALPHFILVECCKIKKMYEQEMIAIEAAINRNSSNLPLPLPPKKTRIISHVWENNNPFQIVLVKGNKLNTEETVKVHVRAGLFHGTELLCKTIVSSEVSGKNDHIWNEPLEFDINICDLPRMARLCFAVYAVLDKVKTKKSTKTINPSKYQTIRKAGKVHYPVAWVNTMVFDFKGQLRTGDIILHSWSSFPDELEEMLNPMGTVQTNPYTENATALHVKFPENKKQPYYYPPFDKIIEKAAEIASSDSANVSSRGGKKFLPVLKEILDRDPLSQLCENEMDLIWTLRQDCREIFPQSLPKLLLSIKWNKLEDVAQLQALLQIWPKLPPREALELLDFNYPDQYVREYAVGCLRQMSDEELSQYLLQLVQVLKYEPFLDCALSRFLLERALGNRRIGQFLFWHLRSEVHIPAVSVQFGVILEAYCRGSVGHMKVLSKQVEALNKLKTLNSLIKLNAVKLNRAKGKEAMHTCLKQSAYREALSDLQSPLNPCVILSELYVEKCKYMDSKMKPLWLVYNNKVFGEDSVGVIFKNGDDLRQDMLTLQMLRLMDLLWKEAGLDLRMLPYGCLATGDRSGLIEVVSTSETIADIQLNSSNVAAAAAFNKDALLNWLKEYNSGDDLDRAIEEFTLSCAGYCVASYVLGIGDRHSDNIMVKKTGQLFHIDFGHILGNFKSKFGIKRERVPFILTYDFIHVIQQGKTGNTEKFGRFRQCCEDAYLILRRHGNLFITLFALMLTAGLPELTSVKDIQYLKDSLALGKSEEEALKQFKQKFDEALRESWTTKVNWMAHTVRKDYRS
Sequence of CSF1R-autoinhibited (P07333 whole entry): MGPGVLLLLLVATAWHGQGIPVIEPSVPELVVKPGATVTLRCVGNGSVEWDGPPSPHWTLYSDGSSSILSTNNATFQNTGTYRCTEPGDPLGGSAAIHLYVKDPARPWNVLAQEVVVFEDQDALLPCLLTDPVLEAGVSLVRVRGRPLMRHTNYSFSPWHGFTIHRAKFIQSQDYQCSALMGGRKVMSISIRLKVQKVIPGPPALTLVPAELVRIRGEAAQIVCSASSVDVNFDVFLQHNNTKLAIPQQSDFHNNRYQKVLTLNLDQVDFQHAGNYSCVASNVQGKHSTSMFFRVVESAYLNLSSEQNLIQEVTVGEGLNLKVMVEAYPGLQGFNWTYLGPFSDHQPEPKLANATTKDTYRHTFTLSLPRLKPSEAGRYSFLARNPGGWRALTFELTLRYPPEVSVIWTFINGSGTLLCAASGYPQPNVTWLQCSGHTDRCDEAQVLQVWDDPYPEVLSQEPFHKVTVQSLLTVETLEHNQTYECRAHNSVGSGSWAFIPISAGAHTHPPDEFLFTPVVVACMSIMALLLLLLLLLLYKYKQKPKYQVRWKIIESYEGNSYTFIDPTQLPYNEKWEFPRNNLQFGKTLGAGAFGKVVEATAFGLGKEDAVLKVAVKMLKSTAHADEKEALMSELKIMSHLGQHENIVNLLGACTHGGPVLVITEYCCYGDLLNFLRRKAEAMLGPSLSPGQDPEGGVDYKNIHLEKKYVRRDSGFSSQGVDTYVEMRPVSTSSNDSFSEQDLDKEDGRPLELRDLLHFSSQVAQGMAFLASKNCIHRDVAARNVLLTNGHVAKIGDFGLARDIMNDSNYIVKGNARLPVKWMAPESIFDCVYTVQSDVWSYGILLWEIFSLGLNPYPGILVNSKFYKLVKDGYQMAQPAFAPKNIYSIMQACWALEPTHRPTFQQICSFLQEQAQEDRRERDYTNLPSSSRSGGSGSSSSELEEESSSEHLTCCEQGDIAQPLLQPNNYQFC
Sequence of KIT-autoinhibited (P10721 whole entry): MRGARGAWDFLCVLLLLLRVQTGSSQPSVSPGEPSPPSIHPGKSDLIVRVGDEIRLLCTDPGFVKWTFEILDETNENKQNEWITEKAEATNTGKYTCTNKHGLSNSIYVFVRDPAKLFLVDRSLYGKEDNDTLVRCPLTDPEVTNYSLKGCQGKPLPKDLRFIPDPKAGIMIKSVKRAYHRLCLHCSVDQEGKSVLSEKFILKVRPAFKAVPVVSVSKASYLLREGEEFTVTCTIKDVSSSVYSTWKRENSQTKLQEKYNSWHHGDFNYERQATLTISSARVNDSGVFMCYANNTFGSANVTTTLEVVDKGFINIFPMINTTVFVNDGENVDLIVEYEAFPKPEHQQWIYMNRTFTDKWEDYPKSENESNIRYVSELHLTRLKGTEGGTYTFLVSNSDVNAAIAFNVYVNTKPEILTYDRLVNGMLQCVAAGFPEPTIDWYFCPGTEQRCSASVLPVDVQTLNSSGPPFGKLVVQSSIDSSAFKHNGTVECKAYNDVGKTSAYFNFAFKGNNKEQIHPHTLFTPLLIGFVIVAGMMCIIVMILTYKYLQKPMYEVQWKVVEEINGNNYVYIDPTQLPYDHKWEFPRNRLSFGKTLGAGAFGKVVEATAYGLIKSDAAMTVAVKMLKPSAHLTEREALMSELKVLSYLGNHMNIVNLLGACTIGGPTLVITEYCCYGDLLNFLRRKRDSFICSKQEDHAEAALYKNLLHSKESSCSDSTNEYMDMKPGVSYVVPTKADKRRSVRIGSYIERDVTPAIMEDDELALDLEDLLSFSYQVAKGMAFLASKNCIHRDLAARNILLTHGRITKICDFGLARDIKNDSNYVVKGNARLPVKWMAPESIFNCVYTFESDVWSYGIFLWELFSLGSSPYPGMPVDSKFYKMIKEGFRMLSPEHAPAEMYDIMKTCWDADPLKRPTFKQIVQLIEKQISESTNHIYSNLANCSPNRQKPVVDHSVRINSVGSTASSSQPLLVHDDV

With `CN1CCN(c2ccc(Nc3nc(Oc4ccc(NC(=O)CCl)cc4)c4cc[nH]c4n3)cc2)CC1` [CPT1-70-1] the remaining activity at 1 µM (KIT-autoinhibited) was 39%, the remaining activity at 1 µM (CSF1R-autoinhibited) was 1.4% and the remaining activity at 1 µM (PIK3CB) was 100%. It also gave a remaining activity at 1 µM (PKAC-beta) of 100% and a remaining activity at 1 µM (PKMYT1) of 94%.
